# Experimental data taken from US10736932B2, “Small molecule Ras inhibitors” (Ohio State Innovation Foundation, priority 2014, dated 2020).
# Square brackets hold non-standard residues; d marks the D form. Side chains are listed from the residue outwards. Peptide text beside a SMILES is read from it. * marks the point of attachment. FITC = O=C1OC2(c3ccc(O)cc3Oc3cc(O)ccc32)c2ccc(NC(=S)*)cc21; Phe(3,4-F2) = N[C@@H](Cc1ccc(F)c(F)c1)C(=O)O; Phe(4-F) = N[C@@H](Cc1ccc(F)cc1)C(=O)O; d2Nal = N[C@H](Cc1ccc2ccccc2c1)C(=O)O; Benzoyl(3-Br) = O=C(c1cccc(Br)c1)*; Tle = CC(C)(C)[C@H](N)C(=O)O; X2 = O=C(C=Cc1ccc(Cl)cc1)*; X5 = O=C(c1cc(F)cc(Br)c1)*; dNle = CCCC[C@@H](N)C(=O)O; Dap = NC[C@H](N)C(=O)O
# Columns and labels:
# K-Ras(G12V) = target: T1, K-Ras(G12V) (Homo sapiens, UniProt P01116, G12V); assay: Fluorescence anisotropy (FA) binding of FITC-labeled cyclic peptides to K-Ras; conditions: Table 2; FITC-labeled peptide; read-out: Binding affinity KD
# T1 construct: The G12V mutant K-Ras (amino acids 1-185) was recombinantly fused; GST (N, cleaved yes); made in house; host or cells: Escherichia coli BL21
# [1] = target: T2, K-Ras / Raf RBD interaction (Homo sapiens, UniProt P01116, G12V); assay: HTRF assay, inhibition of Ras-Raf RBD interaction; type: binding; conditions: for increase in Ras binding affinity upon residue substitution: relative to parent 9A5/9A6;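 as to all read-outs here: HTRF signal read after overnight incubation of the assay plate at 4 °C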
# T2 construct: The G12V mutant K-Ras (amino acids 1-185) was recombinantly fused; GST (N, cleaved yes); made in house; host or cells: Escherichia coli BL21
Structure (SMILES),Kd (K-Ras(G12V)) [nM],IC50 [1] [nM],increase in Ras binding affinity upon residue substitution [1] [fold]
"C[C@H]1NC(=O)[C@H](C(C)(C)C)NC(=O)[C@H](Cc2c[nH]c3ccccc23)NC(=O)[C@H](CCC(N)=O)NC(=O)[C@@H](CCCCNC(=O)C=Cc2ccc(Cl)cc2)NC(=O)[C@H](Cc2ccc(F)cc2)NC(=O)[C@H](CCCNC(=N)N)NC(=O)[C@@H](Cc2ccc3ccccc3c2)NC(=O)[C@H](CCCCNC(=S)Nc2ccc3c(c2)C(=O)OC32c3ccc(O)cc3Oc3cc(O)ccc32)NC(=O)[C@H](CCCNC(=N)N)NC(=O)[C@H](CCCNC(=N)N)NC1=O [Cyclorasin 9A34, (Trp-Tle-ala-Arg-Arg-Lys(FITC)-nal-Arg-Fpa-lys(4-chlorocinnamoyl)-Gln)] (cyclo(K(FITC)[d2Nal]R[Phe(4-F)][dK](X2)QW[Tle][dA]RR))",> 20000,–,–
"C[C@H]1NC(=O)[C@H](C(C)(C)C)NC(=O)[C@H](CNC(=O)c2cccc(Br)c2)NC(=O)[C@H](CCC(N)=O)NC(=O)[C@@H](CCCCN)NC(=O)[C@H](Cc2ccc(F)cc2)NC(=O)[C@H](CCCNC(=N)N)NC(=O)[C@@H](Cc2ccc3ccccc3c2)NC(=O)[C@H](CCCCNC(=S)Nc2ccc3c(c2)C(=O)OC32c3ccc(O)cc3Oc3cc(O)ccc32)NC(=O)[C@H](CCCNC(=N)N)NC(=O)[C@H](CCCNC(=N)N)NC1=O [Cyclorasin 9A30, (Dap(3-bromobenzoyl)-Tle-ala-Arg-Arg-Lys(FITC)-nal-Arg-Fpa-lys-Gln)] (cyclo([Dap](Benzoyl(3-Br))[Tle][dA]RRK(FITC)[d2Nal]R[Phe(4-F)][dK]Q))",640 ± 70,–,–
"C[C@H]1NC(=O)[C@H](C(C)(C)C)NC(=O)[C@H](CNC(=O)c2cc(F)cc(Br)c2)NC(=O)[C@H](CCC(N)=O)NC(=O)[C@@H](CCCCN)NC(=O)[C@H](Cc2ccc(F)cc2)NC(=O)[C@H](CCCNC(=N)N)NC(=O)[C@@H](Cc2ccc3ccccc3c2)NC(=O)[C@H](CCCCNC(=S)Nc2ccc3c(c2)C(=O)OC32c3ccc(O)cc3Oc3cc(O)ccc32)NC(=O)[C@H](CCCNC(=N)N)NC(=O)[C@H](CCCNC(=N)N)NC1=O [Cyclorasin 9A25, (Dap(3-bromo-5-fluorobenzoyl)-Tle-ala-Arg-Arg-Lys(FITC)-nal-Arg-Fpa-lys-Gln)] (cyclo([Dap](X5)[Tle][dA]RRK(FITC)[d2Nal]R[Phe(4-F)][dK]Q))",470 ± 100,–,–
"C[C@H]1NC(=O)[C@H](C(C)(C)C)NC(=O)[C@H](Cc2c[nH]c3ccccc23)NC(=O)[C@H](CCC(N)=O)NC(=O)[C@@H](CCCCNC(=O)c2cc(F)cc(Br)c2)NC(=O)[C@H](Cc2ccc(F)cc2)NC(=O)[C@H](CCCNC(=N)N)NC(=O)[C@@H](Cc2ccc3ccccc3c2)NC(=O)[C@H](CCCCNC(=S)Nc2ccc3c(c2)C(=O)OC32c3ccc(O)cc3Oc3cc(O)ccc32)NC(=O)[C@H](CCCNC(=N)N)NC(=O)[C@H](CCCNC(=N)N)NC1=O [Cyclorasin 9A32, (Trp-Tle-ala-Arg-Arg-Lys(FITC)-nal-Arg-Fpa-lys(3-bromo-5-fluorobenzoyl)-Gln)] (cyclo(K(FITC)[d2Nal]R[Phe(4-F)][dK](X5)QW[Tle][dA]RR))",> 20000,–,–
"CCCC[C@H]1NC(=O)[C@H](Cc2ccc(F)cc2)NC(=O)[C@H](CCCNC(=N)N)NC(=O)[C@@H](Cc2ccc3ccccc3c2)NC(=O)[C@H](CCCNC(=N)N)NC(=O)[C@H](CCCNC(=N)N)NC(=O)[C@@H](CCCNC(=N)N)NC(=O)[C@@H](C)NC(=O)[C@H](C(C)C)NC(=O)[C@H](Cc2c[nH]c3ccccc23)NC(=O)[C@H](CCC(N)=O)NC1=O [Cyclorasin 9A18, (Trp-Val-ala-arg-Arg-Arg-nal-Arg-Fpa-nle-Gln)] (cyclo(WV[dA][dR]RR[d2Nal]R[Phe(4-F)][dNle]Q))",–,230 ± 110,–
"CCCC[C@H]1NC(=O)[C@H](Cc2ccc(F)cc2)NC(=O)[C@H](CCCNC(=N)N)NC(=O)[C@@H](Cc2ccc3ccccc3c2)NC(=O)[C@H](CCCNC(=N)N)NC(=O)[C@H](CCCNC(=N)N)NC(=O)[C@H](CCCNC(=N)N)NC(=O)[C@@H](C(C)C)NC(=O)[C@H](C(C)(C)C)NC(=O)[C@H](Cc2c[nH]c3ccccc23)NC(=O)[C@H](CCC(N)=O)NC1=O [Cyclorasin 9A48, (Trp-Tle-val-Arg-Arg-Arg-nal-Arg-Fpa-nle-Gln)] (cyclo(W[Tle][dV]RRR[d2Nal]R[Phe(4-F)][dNle]Q))",–,48 ± 3,–
"CCCC[C@H]1NC(=O)[C@H](Cc2ccc(F)cc2)NC(=O)[C@H](CCCNC(=N)N)NC(=O)[C@@H](Cc2ccc3ccccc3c2)NC(=O)[C@H](CCCNC(=N)N)NC(=O)[C@H](CCCNC(=N)N)NC(=O)[C@H](CCC(=O)N[C@@H](CCCCN)C(N)=O)NC(=O)[C@@H](C)NC(=O)[C@H](C)NC(=O)[C@H](Cc2c[nH]c3ccccc23)NC(=O)[C@@H](CO)NC1=O [Cyclorasin 9A(Thr9A), (Arg-Arg-nal-Arg-Fpa-nle-ser-Trp-Ala-ala-Gln)-Lys] (cyclo(A[dA]E([Lys-NH2])RR[d2Nal]R[Phe(4-F)][dNle][dS]W))",–,> 10000,–
"CCCC[C@H]1NC(=O)[C@H](Cc2ccc(F)cc2)NC(=O)[C@H](CCCNC(=N)N)NC(=O)[C@@H](Cc2ccc3ccccc3c2)NC(=O)[C@H](CCCNC(=N)N)NC(=O)[C@H](CCCNC(=N)N)NC(=O)[C@@H](CCCNC(=N)N)NC(=O)[C@@H](C)NC(=O)[C@H](CO)NC(=O)[C@H](Cc2c[nH]c3ccccc23)NC(=O)[C@H](CCC(N)=O)NC1=O [Cyclorasin 9A17, (Trp-Ser-ala-arg-Arg-Arg-nal-Arg-Fpa-nle-Gln)] (cyclo(WS[dA][dR]RR[d2Nal]R[Phe(4-F)][dNle]Q))",–,720 ± 310,–
"CCCC[C@H]1NC(=O)[C@H](Cc2ccc(F)c(F)c2)NC(=O)[C@H](CCCNC(=N)N)NC(=O)[C@@H](Cc2ccc3ccccc3c2)NC(=O)[C@H](CCCNC(=N)N)NC(=O)[C@H](CCCNC(=N)N)NC(=O)[C@@H](CCCNC(=N)N)NC(=O)[C@@H](C(C)C)NC(=O)[C@H](C(C)(C)C)NC(=O)[C@H](Cc2c[nH]c3ccccc23)NC(=O)[C@H](CCC(N)=O)NC1=O [Cyclorasin 9A51, (Trp-Tle-val-arg-Arg-Arg-nal-Arg-Phe(3,4-difluoro)-nle-Gln)] (cyclo(W[Tle][dV][dR]RR[d2Nal]R[Phe(3,4-F2)][dNle]Q))",–,15,–
"CCCC[C@H]1NC(=O)[C@H](Cc2ccc(F)cc2)NC(=O)[C@H](CCCNC(=N)N)NC(=O)[C@@H](Cc2ccc3ccccc3c2)NC(=O)[C@H](CCCNC(=N)N)NC(=O)[C@H](CCCNC(=N)N)NC(=O)[C@@H](CCCNC(=N)N)NC(=O)[C@@H](CC(C)C)NC(=O)[C@H]([C@@H](C)O)NC(=O)[C@H](Cc2c[nH]c3ccccc23)NC(=O)[C@H](CCC(N)=O)NC1=O [Cyclorasin 9A15, (Trp-Thr-leu-arg-Arg-Arg-nal-Arg-Fpa-nle-Gln)] (cyclo(WT[dL][dR]RR[d2Nal]R[Phe(4-F)][dNle]Q))",–,110 ± 40,–
"C[C@H]1NC(=O)[C@H]([C@@H](C)O)NC(=O)[C@H](Cc2c[nH]c3ccccc23)NC(=O)[C@H](CCC(N)=O)NC(=O)[C@@H](CCCNC(=N)N)NC(=O)[C@H](Cc2ccc(F)cc2)NC(=O)[C@H](CCCNC(=N)N)NC(=O)[C@@H](Cc2ccc3ccccc3c2)NC(=O)[C@H](CCCNC(=N)N)NC(=O)[C@H](CCCNC(=N)N)NC(=O)[C@H](CCCNC(=N)N)NC1=O [Cyclorasin 9A45, (Trp-Thr-ala-Arg-Arg-Arg-nal-Arg-Fpa-arg-Gln)] (cyclo(WT[dA]RRR[d2Nal]R[Phe(4-F)][dR]Q))",–,36 ± 4,4
"CCCC[C@H]1NC(=O)[C@H](C)NC(=O)[C@H](CCCNC(=N)N)NC(=O)[C@@H](Cc2ccc3ccccc3c2)NC(=O)[C@H](CCCNC(=N)N)NC(=O)[C@H](CCCNC(=N)N)NC(=O)[C@H](CCC(=O)N[C@@H](CCCCN)C(N)=O)NC(=O)[C@@H](C)NC(=O)[C@H]([C@@H](C)O)NC(=O)[C@H](Cc2c[nH]c3ccccc23)NC(=O)[C@@H](CO)NC1=O [Cyclorasin 9A(Fpa5A), (Arg-Arg-nal-Arg-Ala-nle-ser-Trp-Thr-ala-Gln)-Lys] (cyclo(RR[d2Nal]RA[dNle][dS]WT[dA]E([Lys-NH2])))",–,> 10000,–
"CCCC[C@H]1NC(=O)[C@H](Cc2ccc(F)cc2)NC(=O)[C@H](CCCNC(=N)N)NC(=O)[C@@H](Cc2ccc3ccccc3c2)NC(=O)[C@H](CCCNC(=N)N)NC(=O)[C@H](CCCNC(=N)N)NC(=O)[C@@H](CCCNC(=N)N)NC(=O)[C@@H](C(C)C)NC(=O)[C@H](C(C)(C)C)NC(=O)[C@H](Cc2c[nH]c3ccccc23)NC(=O)[C@H](CCC(N)=O)NC1=O [Cyclorasin 9A53, (Trp-Tle-val-arg-Arg-Arg-nal-Arg-Fpa-nle-Gln)] (cyclo(W[Tle][dV][dR]RR[d2Nal]R[Phe(4-F)][dNle]Q))",–,27 ± 11,–
"CCCC[C@H]1NC(=O)[C@H](Cc2ccc(F)cc2)NC(=O)[C@H](CCCNC(=N)N)NC(=O)[C@@H](Cc2ccc3ccccc3c2)NC(=O)[C@H](CCCNC(=N)N)NC(=O)[C@H](CCCNC(=N)N)NC(=O)[C@@H](CCCNC(=N)N)NC(=O)[C@@H](C)NC(=O)[C@H](C(C)(C)C)NC(=O)[C@H](Cc2c[nH]c3ccccc23)NC(=O)[C@H](CCC(N)=O)NC1=O [Cyclorasin 9A16, (Trp-Tle-ala-arg-Arg-Arg-nal-Arg-Fpa-nle-Gln)] (cyclo(W[Tle][dA][dR]RR[d2Nal]R[Phe(4-F)][dNle]Q))",–,110 ± 10,~2
"CCCC[C@H]1NC(=O)[C@H](Cc2ccc(F)cc2)NC(=O)[C@H](CCCNC(=N)N)NC(=O)[C@@H](Cc2ccc3ccccc3c2)NC(=O)[C@H](CCCNC(=N)N)NC(=O)[C@H](CCCNC(=N)N)NC(=O)[C@H](CCCNC(=N)N)NC(=O)[C@@H](C)NC(=O)[C@H](C(C)(C)C)NC(=O)[C@H](Cc2c[nH]c3ccccc23)NC(=O)[C@H](CCC(N)=O)NC1=O [Cyclorasin 9A46, (Trp-Tle-ala-Arg-Arg-Arg-nal-Arg-Fpa-nle-Gln)] (cyclo(W[Tle][dA]RRR[d2Nal]R[Phe(4-F)][dNle]Q))",–,130 ± 20,–
"CCCC[C@H]1NC(=O)[C@H](Cc2ccc(F)cc2)NC(=O)[C@H](C)NC(=O)[C@@H](Cc2ccc3ccccc3c2)NC(=O)[C@H](CCCNC(=N)N)NC(=O)[C@H](CCCNC(=N)N)NC(=O)[C@H](CCC(=O)N[C@@H](CCCCN)C(N)=O)NC(=O)[C@@H](C)NC(=O)[C@H]([C@@H](C)O)NC(=O)[C@H](Cc2c[nH]c3ccccc23)NC(=O)[C@@H](CO)NC1=O [Cyclorasin 9A(Arg4A), (Arg-Arg-nal-Ala-Fpa-nle-ser-Trp-Thr-ala-Gln)-Lys] (cyclo(RR[d2Nal]A[Phe(4-F)][dNle][dS]WT[dA]E([Lys-NH2])))",–,390 ± 280,–
